Where “and” joins values, the source holds several entries; their conditions need not be identical. Equal entries are not always repeated. Where two headings read alike, the source gives them in different places.
Assay: Pharmacokinetic analysis of vepafestinib in rats (microdialysis PFC, CSF, plasma)
Format: in vivo, male Han Wistar rats

## COCc1ccc(NC(=O)c2c(C#CCN3CCOCC3)n(C3(C)CC3)c3ncnc(N)c23)cc1 [Vepafestinib, 4-amino-N-[4-(methoxymethyl)phenyl]-7-(1-methylcyclopropyl)-6-[3-(morpholin-4-yl)prop-1-yn-1-yl]-7H-pyrrolo[2,3-d]pyrimidine-5-carboxamide]
male, Han Wistar, rat, plasma (total), oral, 10 mg/kg, 180 min, individual rats, read-out: Concentration in Rats, Plasma (total)
  concentration at 180 min: 1780 nM
male, Han Wistar, rat, plasma (total), oral, 10 mg/kg, 240 min, individual rats, read-out: Concentration in Rats, Plasma (total)
  concentration at 240 min: 872 nM
male, Han Wistar, rat, plasma (total), oral, 10 mg/kg, 480 min, individual rats, read-out: Concentration in Rats, Plasma (total)
  concentration at 480 min: 102 nM
male, Han Wistar, rat, plasma (total), oral, 50 mg/kg, rats, 50 mg/kg, 120 min, individual animals, read-out: Concentration in Plasma (total)
  concentration at 120 min: 9260 nM
male, Han Wistar, rat, plasma (total), oral, 50 mg/kg, 30 min, individual rats, read-out: Concentration in Rats, Plasma (total)
  concentration at 30 min: 15100 nM
male, Han Wistar, rat, plasma (total), oral, 50 mg/kg, 60 min, individual rats, read-out: Concentration in Rats, Plasma (total)
  concentration at 60 min: 10400 nM
male, Han Wistar, rat, plasma (total), oral, 50 mg/kg, 120 min, individual rats, read-out: Concentration in Rats, Plasma (total)
  concentration at 120 min: 9260 nM
male, Han Wistar, rat, plasma, oral, 50 mg/kg, rats, 50 mg/kg, 30 min, individual animals, read-out: Concentration in Plasma (total)
  concentration at 30 min: 15100 nM
male, Han Wistar, rat, plasma, oral, 50 mg/kg, rats, 50 mg/kg, 60 min, individual animals, read-out: Concentration in Plasma (total)
  concentration at 60 min: 10400 nM
male, Han Wistar, rat, prefrontal cortex microdialysate, oral, 3 mg/kg, 30 min, individual rats, read-out: Concentration in Rats, Prefrontal cortex
  concentration at 30 min: 7.04 nM
male, Han Wistar, rat, prefrontal cortex microdialysate, oral, 3 mg/kg, 90 min, individual rats
  concentration at 90 min: 102 nM
male, Han Wistar, rat, prefrontal cortex microdialysate, oral, 3 mg/kg, 120 min, individual rats, read-out: Concentration in Rats, Prefrontal cortex
  concentration at 120 min: 129 nM
male, Han Wistar, rat, prefrontal cortex microdialysate, oral, 3 mg/kg, 150 min, individual rats
  concentration at 150 min: 101 nM
male, Han Wistar, rat, prefrontal cortex microdialysate, oral, 10 mg/kg, 30 min, individual rats, read-out: Concentration in Rats, Prefrontal cortex
  concentration at 30 min: 17.5 nM
male, Han Wistar, rat, prefrontal cortex microdialysate, oral, 10 mg/kg, 60 min, individual rats, read-out: Concentration in Rats, Prefrontal cortex
  concentration at 60 min: 362 nM
male, Han Wistar, rat, prefrontal cortex microdialysate, oral, 10 mg/kg, 90 min, individual rats
  concentration at 90 min: 514 nM
male, Han Wistar, rat, prefrontal cortex microdialysate, oral, 10 mg/kg, 120 min, individual rats, read-out: Concentration in Rats, Prefrontal cortex
  concentration at 120 min: 479 nM
male, Han Wistar, rat, prefrontal cortex microdialysate, oral, 10 mg/kg, 150 min, individual rats
  concentration at 150 min: 270 nM
male, Han Wistar, rat, prefrontal cortex microdialysate, oral, 10 mg/kg, 180 min, individual rats, read-out: Concentration in Rats, Prefrontal cortex
  concentration at 180 min: 259 nM
male, Han Wistar, rat, prefrontal cortex microdialysate, oral, 50 mg/kg, rats, 50 mg/kg, 120 min, individual animals, read-out: Concentration in Prefrontal cortex
  concentration at 120 min: 972 nM
male, Han Wistar, rat, prefrontal cortex microdialysate, oral, 50 mg/kg, rats, 50 mg/kg, 1500 min, individual animals, read-out: Concentration in Prefrontal cortex
  concentration at 1500 min: 71.6 nM
male, Han Wistar, rat, prefrontal cortex microdialysate, oral, 50 mg/kg, 120 min, individual rats, read-out: Concentration in Rats, Prefrontal cortex
  concentration at 120 min: 972 nM
male, Han Wistar, rat, prefrontal cortex microdialysate, oral, 50 mg/kg, 1500 min, individual rats, read-out: Concentration in Rats, Prefrontal cortex
  concentration at 1500 min: 71.6 nM
rats, 50 mg/kg, 30 min, individual animals, 50 mg/kg, read-out: Concentration in Cerebrospinal fluid
  concentration at 480 min: 1290 nM and 1440 nM and 2760 nM and 1580 nM
rats, 50 mg/kg, 30 min, individual animals, 50 mg/kg, read-out: Concentration in Plasma (total)
  concentration at 60 min: 15700 nM and 13100 nM and 11800 nM
rats, 50 mg/kg, 30 min, individual animals, 50 mg/kg, read-out: Concentration in Prefrontal cortex
  concentration at 1500 min: 30.2 nM and 10.2 nM and 22.2 nM and 39.9 nM
rats, 50 mg/kg, 60 min, individual animals, 50 mg/kg, read-out: Concentration in Cerebrospinal fluid
  concentration at 480 min: 648 nM and 1420 nM and 2370 nM and 1210 nM
rats, 50 mg/kg, 60 min, individual animals, 50 mg/kg, read-out: Concentration in Plasma (total)
  concentration at 60 min: 11900 nM and 11400 nM and 11800 nM
rats, 50 mg/kg, 60 min, individual animals, 50 mg/kg, read-out: Concentration in Prefrontal cortex
  concentration at 1500 min: 883 nM and 396 nM and 691 nM and 1135 nM
rats, 50 mg/kg, 90 min, individual animals, 50 mg/kg, read-out: Concentration in Prefrontal cortex
  concentration at 1500 min: 1549 nM and 742 nM and 1277 nM and 1593 nM
rats, 50 mg/kg, 120 min, individual animals, 50 mg/kg, read-out: Concentration in Cerebrospinal fluid
  concentration at 480 min: 1780 nM and 1160 nM and 2340 nM and 756 nM
rats, 50 mg/kg, 120 min, individual animals, 50 mg/kg, read-out: Concentration in Plasma (total)
  concentration at 60 min: 16400 nM and 8330 nM and 13200 nM
rats, 50 mg/kg, 120 min, individual animals, 50 mg/kg, read-out: Concentration in Prefrontal cortex
  concentration at 1500 min: 1089 nM and 1363 nM and 1680 nM
rats, 50 mg/kg, 150 min, individual animals, 50 mg/kg, read-out: Concentration in Prefrontal cortex
  concentration at 1500 min: 804 nM and 1293 nM and 1118 nM and 1680 nM
rats, 50 mg/kg, 180 min, individual animals, 50 mg/kg, read-out: Concentration in Plasma (total)
  concentration at 60 min: 6200 nM and 14400 nM and 6310 nM and 8540 nM
rats, 50 mg/kg, 180 min, individual animals, 50 mg/kg, read-out: Concentration in Prefrontal cortex
  concentration at 1500 min: 761 nM and 1438 nM and 957 nM and 2162 nM
rats, 50 mg/kg, 210 min, individual animals, 50 mg/kg, read-out: Concentration in Prefrontal cortex
  concentration at 1500 min: 555 nM and 1724 nM and 852 nM and 1666 nM
rats, 50 mg/kg, 240 min, individual animals, 50 mg/kg, read-out: Concentration in Cerebrospinal fluid
  concentration at 480 min: 1730 nM and 963 nM and 1170 nM and 522 nM
rats, 50 mg/kg, 240 min, individual animals, 50 mg/kg, read-out: Concentration in Plasma (total)
  concentration at 60 min: 3870 nM and 13700 nM and 7630 nM and 7250 nM
rats, 50 mg/kg, 240 min, individual animals, 50 mg/kg, read-out: Concentration in Prefrontal cortex
  concentration at 1500 min: 463 nM and 1651 nM and 722 nM and 1680 nM
rats, 50 mg/kg, 270 min, individual animals, 50 mg/kg, read-out: Concentration in Prefrontal cortex
  concentration at 1500 min: 359 nM and 1856 nM and 877 nM and 1281 nM
rats, 50 mg/kg, 300 min, individual animals, 50 mg/kg, read-out: Concentration in Plasma (total)
  concentration at 60 min: 4840 nM and 9390 nM and 5350 nM and 4540 nM
rats, 50 mg/kg, 360 min, individual animals, 50 mg/kg, read-out: Concentration in Plasma (total)
  concentration at 60 min: 5830 nM and 7730 nM and 5370 nM and 2620 nM
rats, 50 mg/kg, 480 min, individual animals, 50 mg/kg, read-out: Concentration in Cerebrospinal fluid
  concentration at 480 min: 435 nM and 486 nM and 321 nM
rats, 50 mg/kg, 480 min, individual animals, 50 mg/kg, read-out: Concentration in Plasma (total)
  concentration at 60 min: 134 nM and 4450 nM and 4860 nM and 4260 nM
rats, 50 mg/kg, 1500 min, individual animals, 50 mg/kg, read-out: Concentration in Prefrontal cortex
  concentration at 1500 min: 123 nM

— PMC10518257 (Nature Cancer, 2023)
